We go through four molecules from publication PMC7508583, “Discovery and Preclinical Development of Antigiardiasis Fumagillol Derivatives” (Antimicrobial Agents and Chemotherapy, 2020).

Read-outs that look alike come from different tables or passages of the source. Some results are limits rather than exact numbers.

The subject of one series is Caco-2 cell monolayers. Put plainly: in vitro. The conditions noted are these: human, Caco-2, 120 min, 10 µM, pH 7.4. From the text:
Next, we tested the permeation of the compounds across polarized Caco-2 cell monolayers, a method that is widely used as an in vitro model of the human small intestinal mucosa to predict the absorption of orally administered drugs ([63], [64]). With noninvasive intestinal infections, there is no need to establish a high plasma concentration. Since a high rate of uptake through the host gut lining could increase compound toxicity, we sought to reduce gut absorption. […] Both apical-to-basal and basal-to-apical permeation values were measured to obtain information about efflux. […] The efflux machinery is currently unknown.
Passage 36 Caco-2 cells were used. The cells were cultured in Dulbecco’s modified Eagle’s medium (DMEM; 5 ml of 100 mM sodium pyruvate, 5 ml of 100× nonessential amino acids, 5 ml of penicillin-streptomycin, and 100 ml of heat-inactivated fetal bovine serum added to 385 ml of DMEM aseptically and mixed thoroughly), pH 7.4, at 37°C in 5% CO2. DMEM (250 μl) was added to the basal compartment of 96-well multiscreen Caco-2 cell plate consisting of high-pore-density polycarbonate (Millipore) with a 0.4-μm pore size and a 0.11-cm^2 active membrane area. The cells were seeded at a density of 12,000 cells/well (0.16 × 10^6 cells/ml) in the apical wells, with one well containing only medium as blank. The Caco-2 cell plate was placed in a CO2 incubator at 37°C for cell proliferation. On the day of assay, the medium was removed, washed twice with Hanks balanced salt solution (HBSS) buffer supplemented with 2% bovine serum albumin (BSA), pH 7.4, and incubated with the HBSS buffer for 30 min at 37°C. Wells with transepithelial electrical resistance values of greater than 230 Ω · cm^2 were selected for the experiments. […] The assay was performed in duplicate.
Seventy-five microliters of the test compounds was added to the apical wells, and 250 μl of HBSS buffer with 2% BSA was added to the basal wells. The plate was incubated in a CO2 incubator with shaking on a plate shaker at 150 rpm for 120 min, after which 25 μl of the basal samples was collected and processed.
Two hundred fifty microliters of test compounds was added to the basal wells, and 75 μl of HBSS buffer with 2% BSA was added to the apical wells. The plate was incubated in a CO2 incubator with shaking on a plate shaker at 150 rpm for 120 min, after which 25 μl of the apical samples was collected and processed.
For sample processing, a single-point calibration curve in HBSS buffer with 2% BSA was used. Donor samples were diluted 1:1 with HBSS containing 2% BSA, and receiver samples were diluted with 1:1 HBSS buffer and precipitated with 200 μl of acetonitrile containing internal standard. The samples were vortexed for 5 min at 1,000 rpm and centrifuged at 4,000 rpm for 10 min. One hundred microliters of the supernatant was diluted with 200 μl of water and analyzed by LC-MS/MS (with a Shimadzu ultrafast liquid chromatograph and an API 4000 LC-MS/MS system).
The apparent permeation coefficients (Papp) were calculated as Papp = (dQ/dT) × (1/C0) × (1/A), where dQ is the amount permeated to the receiver compartment of the 96-well plate, dT is the time of compound incubation, C0 is the initial compound concentration in the donor compartment of the well, and A is the surface area of the monolayer.

In series [1] the test system is G. lamblia GS trophozoites. Nature of the series: Mouse giardiasis model efficacy. It counts as in vivo, Giardia lamblia. The conditions noted are these: for ED50: Giardia duodenalis, 96 h; for EC50, 4-day single-daily-dose treatment regimen: Fig. 5. The method, then: The C57BL/6J mice were infected with G. lamblia GS trophozoites, treated for 4 days, and euthanized as described in Materials and Methods.
Compound efficacy was evaluated in the mature mouse giardiasis model reported previously ([18], [66]). Fifteen 4-week-old C57BL/6J female mice (The Jackson Laboratory, Bar Harbor, ME) were infected with G. lamblia GS or H7 trophozoites. For each experiment, the trophozoites (500,000 trophozoites suspended in 200 μl of TYI-S-33 medium) were administered by oral gavage to 15 mice. […] The remaining 5 untreated mice served as controls. The compounds were administered by oral gavage in 200 μl of TYI-S-33 medium supplemented with 0.5% DMSO. All mice were euthanized on day 7. The University of Maryland College Park IACUC approved the animal studies.
Two inches of the upper small intestine were dissected and washed with 2 ml of medium supplemented with antibiotics to produce axenized cultures (1 mg/ml each piperacillin and moxalactam and 10 μg/ml each vancomycin and polymyxin B, which is a modified mixture compared with that used earlier). The harvested small intestines were opened longitudinally and minced in a petri dish containing 10 ml of ice-chilled medium. The plates were placed on ice for 30 min to allow the trophozoites to detach from the intestine, and the entire content of each petri dish was transferred into a 15-ml glass tube, the volume was adjusted to 14 ml by adding the antibiotic-containing medium, and the tube was vigorously vortexed to separate the trophozoites from the intestine debris. For the following 2 h, the tubes were kept at 37°C to allow trophozoite attachment to the wall of the glass tube, after which the medium containing the intestine debris was decanted and replaced by fresh medium. The tubes were kept at 37°C for another 15 min, followed by a second medium replacement. The tubes were kept at 37°C for 6 days for proliferation. Trophozoite growth was determined once daily by monitoring the ATP content using the ATPlite reagent.
The proliferation measurements were used to calculate growth curves and the trophozoite load of drug-treated mice compared with that of untreated mice. The trophozoite load was quantified by calculating the initial population from the growth curves and fitting the luminescence or the trophozoite counting data to the Malthusian model of exponential growth, Nt = N0e^rt, where Nt is the signal of the population at time t, r is the growth rate, and N0 is the signal of the initial population at the end of treatment. The percentage of the load relative to the N0 for untreated mouse samples was determined. […] The curve was fit with a variable slope using GraphPad Prism (version 8.2.1) software (GraphPad Software Inc., La Jolla, CA).

A further series has as its system CHO-K1 (CHO) cells. The conditions noted are these: cited from earlier work.
Setting [2] is: 13.7 mg/kg, mouse giardiasis model.

For `COC1C(OC(=O)NC(=O)CN2CCOCC2)CCC2(CO2)C1C1(C)OC1CC=C(C)C` (centres unmarked) [Compound 3], the “Caco-2 cell permeation as % of the permeation of fumagillin” value in the series on Caco-2 cell monolayers was found to be 62%.

On to `CO[C@@H]1[C@H](OC(=O)Nc2ccc(C(=O)O)cc2)CC[C@]2(CO2)[C@H]1[C@@]1(C)O[C@@H]1CC=C(C)C` [Compound 9, 4-(((((3R,4S,5S,6R)-5-methoxy-4-((2R,3R)-2-methyl-3-(3-methylbut-2-en-1-yl)oxiran-2-yl)-1-oxaspiro[2.5]octan-6-yl)oxy)carbonyl)amino)benzoic acid], for which, in the series with Caco-2 cell monolayers, the “Caco-2 cell permeation as % of the permeation of fumagillin” value is on record as 53%. Besides, the “fully curative dose (100% effective dose, ED100)” value in series [1] (C57BL/6J mice infected with G. lamblia GS, oral, once daily for 4 days) came to 6.6 mg/kg. In series [1] (C57BL/6J mice infected with G. lamblia GS, oral, once daily for 4 days, read-out: ED50), the ED50 was 0.064 mg/kg. Moreover, the “EC50, 4-day single-daily-dose treatment regimen” value in series [1] (mouse giardiasis model) was found to be 0.064 mg/kg/day.

On to `CO[C@@H]1[C@H](OC(=O)/C=C/C=C/C=C/C=C/C(=O)O)CC[C@]2(CO2)[C@H]1[C@@]1(C)O[C@@H]1CC=C(C)C` [Fumagillin, reference compound], for which, in series [1] (setting [2]), the cure of mice entry is listed as “none of the mice were cured” and the “trophozoite load remaining compared with untreated control mice” value was found to be 7%. The molecule further came in with an ED50 in series [1] (po) of 0.247 mg/kg. In addition, in series [1] (mouse giardiasis model), the “EC50, 4-day single-daily-dose treatment regimen” value was 0.247 mg/kg/day. Besides, the IC50 in the series on CHO-K1 (CHO) cells (read-out: IC50, cytotoxicity toward mammalian CHO cells) is above 100 µM.

Consider `Cc1ncc([N+](=O)[O-])n1CCO` [Metronidazole, reference compound], for which the IC50 with CHO-K1 (CHO) cells (read-out: IC50 CHO, cytotoxicity) was 17.3 µM.

In general, ED50 refers to the midpoint of the dose-response relation. The IC50 is the midpoint of a concentration-inhibition curve.
